Source: patent US9393186B2, “Synthetic peptides useful in the treatment of the skin and use thereof in cosmetic or dermopharmaceutical compositions” (Lipotec, S.A., priority 2006, dated 2016)
Square brackets hold non-standard residues; d marks the D form. Ends that are not written are not given here. Cit = NC(=O)NCCC[C@H](N)C(=O)O; Orn = NCCC[C@H](N)C(=O)O; Nva = CCC[C@H](N)C(=O)O

Legend:
[1] = system: EFT-200 three-dimensional human skin model; assay: Collagen fibril diameter in EFT-200 three-dimensional human skin model (transmission electron microscopy); type: cell-based; settings: for average of the diameters of the collagen fibrils observed: peptide 0.1 mg/mL in culture medium, changed daily for 14 days, untreated tissue 6.825 nm; for reduction of the diameter of the collagen fibers: peptide 0.1 mg/mL, 14 days, versus untreated tissue
Description: Starting from an EFT-200 three-dimensional human skin model (MatTek Corporation), the tissues were treated with H-Lys-Asp-Ile-Cit-NH2 and with H-Lys-Asp-Val-Cit-NH2 at a concentration of 0.1 mg/mL in culture medium. The latter was changed daily for 14 days, adding peptide at the same concentration in each change. On day 14, the tissues were fixed with a solution of 2% paraformaldehyde and 2.5% glutaraldehyde in 0.1M phosphate buffer, pH 7.4, for at least 2 hours at 4° C. The post-fixing was then carried out with 1% osmium tetroxide containing 0.8% potassium ferricyanide for 1 hour at 4° C. The tissues were then dehydrated in alcohols and were slowly included in epoxy resin (Spurr). The samples were cut and oriented correctly in the block, allowing them to polymerize for 48 hours at 60° C.

fibrillogenesis = assay: Regulation of fibrillogenesis by synthetic peptides; settings: peptides complying with the [+,-,0,+] charge pattern; no method given

Substance	average of the diameters of the collagen fibrils observed [1]	reduction of the diameter of the collagen fibers [1]	effect on fibrillogenesis (fibrillogenesis)
H-KDV[Cit]-NH2	5.774 nm	15.5%	–
His-Asp-Ile-His (HDIH; printed: His-Asp-Ile-His) [comparison peptide complying with the [+,-,0,+] charge pattern]	–	–	no effect on fibrillogenesis
[Orn]D[Nva]H	–	–	no effect on fibrillogenesis
His-Asp-Ala-Arg (HDAR; printed: His-Asp-Ala-Arg) [comparison peptide complying with the [+,-,0,+] charge pattern]	–	–	no effect on fibrillogenesis
RELH	–	–	capable of regulating fibrillogenesis
H-KDI[Cit]-NH2	5.791 nm	15.1%	–
